Measurements published in a melting point compilation (Tetko et al.; mined from patent text by program, amines drawn as free bases though some values may be those of a salt).

| melting point [°C] | SMILES |
| --- | --- |
| 225 to 226 | N#Cc1cccc(S(=O)(=O)n2c(=O)[nH]c3cc(Cl)ccc3c2=O)c1 |
| 134 to 135 | COC=C(C(=O)OC)c1csc2ccc(C=O)cc12 |
| 139 to 140 | Cc1ccc(-c2cc(F)c(F)cc2-c2ccc(S(N)(=O)=O)cc2)cc1Cl |
| 118 to 121 | C=C(CN1C(=O)c2ccccc2C1=O)c1ccccc1 |
| 136 | CC(SC1COC(c2ccc(C(=O)Nc3ccc(C#N)cc3F)cc2)OC1)C(O)(Cn1cncn1)c1ccc(F)cc1F (centres undefined) |
| 158 to 159 | ClCCCCOc1ccc(OCCCCCl)cc1 |
| 210 | CNC(=O)n1sc(-c2ccccc2)nc1=O |
| 100 to 101 | CC(C)(C)OC(=O)c1ccc(N)cc1F |
| 156 to 157 | O=C(c1ccc2nonc2c1)N1CC2CC1C(Cl)C2Cl (centres undefined) |
| 66 to 67 | CCOC(=O)c1cn(-c2cccc(OC3CCCC3)c2)cn1 |
| 279 to 282 | COc1ccc(-n2nc3c4c([nH]cc-3c2=O)CCCC4)cc1 |
| 123 to 124 | COc1cc(NCCCCCCN2C(=O)c3ccccc3C2=O)c2ncccc2c1 |
| 108 to 109 | C=C(C)CN(CCC12CC3CC(CC(C3)C1)C2)C(=O)NCCCc1ccncc1 |
| 138 to 140 | O=c1cnc(-c2ccc(F)c(Br)c2)nn1Cc1ccc(Cl)nc1 |
| 178 to 180 | O=C(Nc1cccnc1)N1CCc2ccc(Cl)c(Cl)c21 |
| 125 to 126 | Oc1ccc(Br)cc1CNc1cc(Cl)cc(Cl)c1 |
| 238 to 240 | Cc1ccc2c(c1)NC(=O)c1cccc3c1N2CC3 |
| 99 to 103 | CCCCCCCCCCCC1Cc2cc(C(=O)O)ccc2N1 (racemic) |
| 148 to 149 | CN(C(=O)c1ccc2nonc2c1)C1CCCCC1O (centres undefined) |
| 113 to 115 | O=C(O)C1=CSC2C(=Cc3cc4c(s3)-c3cccnc3SC4)C(=O)N12 (centres undefined) |
| 121 to 123 | Cc1ccc2oc(=O)c(=O)oc2c1 |
| 114 to 116 | CCOC(=O)c1c(C(F)(F)F)nn(-c2c(Cl)cc(Cl)cc2Cl)c1N |
| 160 to 162 | NC(=O)c1ccc(NC2CCN(Cc3ccccc3)C2)cc1 (centres undefined) |

| melting point [°C] | SMILES |
| --- | --- |
| 221 to 222 | CC(C)(C)OC(=O)N1CCn2c(c(C(N)=O)c(C#N)c2C2CC2)C1 |
| 155 to 158 | CN(CCc1ccc(O)c(O)c1)C(=O)/C=C/c1cccnc1 |
| 115 to 116 | OCc1cn(Cc2cc(OCc3ccccc3)cc(OCc3ccccc3)c2)cc1-c1ccccc1 |
| 83 to 84 | COc1ccc(CCNC(=O)N(C)O)c(OC)c1 |
| 224 to 228 | COc1cc2[nH]c(N(C)Cc3cccc(Oc4ncccn4)c3)nc(=O)c2c(C)c1OC |
| 135 to 136 | Cc1c(C#N)c2c(c(C)c1NC(=O)CC(C)(C)C)C(c1ccc(C(C)C)cc1)CO2 (centres undefined) |
| 89 to 91 | COc1cccc(C2(CCCCC(=O)O)CCCCC2=O)c1 (centres undefined) |
| 131 to 134 | O=Cc1c(N2CCCC2)n(C2OC(CO)C(O)C2O)c2cc(Cl)c(Cl)cc12 (centres undefined) |
| 179 to 180 | NS(=O)(=O)c1ccc(-n2nc(C(F)(F)F)c(CO)c2-c2ccccc2)cc1 |
| 173 to 174 | CCc1nc(-c2cccc(C(=O)OC)c2)c(-c2ccnc(N)c2)s1 |
| 265 to 266 | COc1cc2nc(N3CCc4ccc(N)cc4C3)nc(N)c2cc1OC |
| 205 to 209 | CCON=Cc1cc(-n2c(=O)cc(C(F)(F)F)[nH]c2=O)c(Cl)cc1Cl |
| > 200 | CCOC(=O)c1ccc(N(C)Cc2ccc3nc(C)[nH]c(=O)c3c2)s1 |
| 165 to 167 | O=S1(=O)CCN2CCCC(c3ccc(Oc4cccc(Cl)c4)cc3)C2=N1 (centres undefined) |
| 149 to 150 | CCOP(=O)(CCc1cccc(-c2nc(=O)c3ccccc3s2)n1)OCC |
| 143 to 145 | Cc1cc(Br)c2c(c1)N(S(=O)(=O)c1ccc(Cl)cc1)CCO2 |
| 145 to 148 | O=c1[nH]cncc1Cc1cccnc1 |
| 103 to 104 | Cc1ccccc1SC(NC=O)c1sccc1C (centres undefined) |
| 210 to 212 | Cc1cccc(NC(=O)OC(C)(C)C)c1CNc1cccn2c(C=O)c(C)nc12 |
| 148 to 149 | CCCC(=O)NCCCCn1c(CC)nc2c(N)nc3ccccc3c21 |
| 180 to 182 | COc1ccc(C(=O)NNC(=O)c2occ(-c3ccccc3)c2-c2ccccc2)cc1NS(C)(=O)=O |
| 130 to 133 | COc1c(F)c(F)cc(C(N)=O)c1F |
| 118 | CN(C)C(=O)c1ccc(C2CCC(=O)CC2)cc1 |

| melting point [°C] | SMILES |
| --- | --- |
| > 250 | O=C1Nc2ccccc2C12COc1c2ccc2c1OCCO2 (centres undefined) |
| 117 | COC(=O)c1ccc2ccc3ccccc3c2c1C(=O)OC |
| 89 to 90 | COCNC(=S)n1nc(Oc2ccc(C#N)cc2C(F)(F)F)cc1C |
| 104 to 105 | COC(=O)C(F)=CCS(=O)(=O)c1ccccc1 |
| 108 to 110 | CCOC(CC)c1ccc(Cl)c2nc3n(c12)CCCN3c1ccc(Cl)cc1Cl (centres undefined) |
| 69 to 73 | O=C(c1ccc(Cl)cc1)c1c(Cl)cc(CBr)cc1Cl |
| 170 to 172 | CCCc1nc2c(N)nc3ccccc3c2n1CC(=O)OCC |
| 122 | O=C(O)c1ccccc1Oc1cccc(F)c1 |
| 143 to 145 | N#Cc1cc2c(nc1NC1CCCCC1)CCCC2=O |
| 137 to 144 | Cc1ccc(S(=O)(=O)Nc2cccc3ccc(Oc4ccc5nc(COc6ccc(CC7SC(=O)NC7=O)cc6)n(C)c5c4)cc23)cc1 (centres undefined) |
| 133 to 135 | Nc1nc(Nc2cccc(C(F)(F)F)c2)nc(OCC(F)(F)F)n1 |
| 85 to 87 | O=C(NC1CCNCC1)N(CCCN1CCC(Cc2ccccc2)CC1)c1ccccc1 |
| 214 to 216 | CON1Cc2c(cc3ccc4c(c3c2-c2ccc3c(c2)OCO3)OCO4)C1=O |
| 281 to 284 | COc1ccc2cc3c(c(-c4ccc(F)cc4)c2c1)C(=O)NC3=O |
| 79 | COC(=O)c1ccc(C=O)s1 |
| 196 to 197 | CCOC(=O)C1=C(C)Nc2cncn2C1c1cccc([N+](=O)[O-])c1 (centres undefined) |
| 200 to 201 | C[C@]1(COC(=O)N(c2ccc(Cl)cc2)c2ccc(Cl)cc2)Cn2cc([N+](=O)[O-])nc2O1 |
| 148 to 151 | N#Cc1ccc(OCCCCCCOc2ccc(-c3cc4cc(C#N)ccc4o3)cc2)cc1 |
| 151 to 154 | CCN(c1nc(C)cc(C)n1)c1ccc(CC=NOC)cc1S(C)(=O)=O |
| 173 to 175 | CCOCc1nc2c(N)nc3ccccc3c2n1CCCC(C)=O |
| 168 to 170 | NC(=NC(=O)c1nc(Cl)c(N)nc1N)NCCCCc1ccc(OCC(=O)Nc2ccccc2)cc1 |
| 232 | Nc1nc(Cl)nc2ccccc12 |
| 142 to 144 | CNC(=O)N(OC(=O)NC(C)(C)C)C(C)=O |

| SMILES | melting point [°C] |
| --- | --- |
| O=[N+]([O-])N(c1ccccc1)c1ccccc1 | 118 |
| CCC(Oc1cccc([N+](=O)[O-])c1Cl)C1=NCCN1 (centres undefined) | 100 to 103 |
| COc1ccc2c(C(=O)c3cc(OC)c(OC)c(OC)c3)c(-c3ccc(OC)c(O)c3)[nH]c2c1 | 189 to 190 |
| CC(=O)C1=CC=C(C(C)(C)OO)C1 | 82 to 84 |
| CC(C)c1cc2c(cc1C(SCC(=O)O)c1ccccc1)OCO2 (centres undefined) | 114 |
